According to paper PMC5218480 (PLoS ONE, 2017):

System: MV-4-11 cells
Test: Gene expression microarray analysis (Affymetrix PrimeView) and GSEA
Format: cell-based, human
Set-up: RFU PODN (11730768_x_at) / Fold change /veh PODN (11730768_x_at) / RFU LINC00158 (11744669_a_at) / Fold change /veh LINC00158 (11744669_a_at) / RFU DUSP10 (11751237_a_at) / Fold change /veh DUSP10 (11751237_a_at) / RFU ID3 (11757404_x_at) / Fold change /veh ID3 (11757404_x_at) / RFU PLEKHG5 (11737974_s_at) / Fold change /veh PLEKHG5 (11737974_s_at) / RFU LRRC4B (11730491_at) / Fold change /veh LRRC4B (11730491_at) / RFU GIMAP4 (11747438_a_at) / Fold change /veh GIMAP4 (11747438_a_at) / RFU KRT8 (11758183_x_at) / Fold change /veh KRT8 (11758183_x_at) / RFU CNN1 (11734310_a_at) / Fold change /veh CNN1 (11734310_a_at) / RFU VPS37D (11726825_at) / Fold change /veh VPS37D (11726825_at) / RFU C10orf10 (11716522_x_at) / Fold change /veh C10orf10 (11716522_x_at) / RFU KIR2DL2 /// KIR2DL4 /// KIR2DL5A /// KIR2DL5B /// KIR2DS1 /// KIR2DS2 /// KIR2DS3 /// KIR2DS4 /// KIR3DL3 /// KIR3DL3 /// KIR3DS1 (11738374_at) / Fold change /veh KIR2DL2 /// KIR2DL4 /// KIR2DL5A /// KIR2DL5B /// KIR2DS1 /// KIR2DS2 /// KIR2DS3 /// KIR2DS4 /// KIR3DL3 /// KIR3DL3 /// KIR3DS1 (11738374_at) / RFU C1QL1 (11718748_at) / Fold change /veh C1QL1 (11718748_at) / RFU TMPRSS4 (11747572_a_at) / Fold change /veh TMPRSS4 (11747572_a_at) / RFU HAMP (11756126_x_at) / Fold change /veh HAMP (11756126_x_at) / RFU RNFT2 (11725882_a_at) / Fold change /veh RNFT2 (11725882_a_at) / RFU NR4A2 (11747474_a_at) / Fold change /veh NR4A2 (11747474_a_at) / RFU ABCC12 (11746883_a_at) / Fold change /veh ABCC12 (11746883_a_at) / RFU TMEM136 (11760407_x_at) / Fold change /veh TMEM136 (11760407_x_at) / RFU CLDN22 /// WWC2 (11732394_at) / Fold change /veh CLDN22 /// WWC2 (11732394_at) / RFU HLA-DPB1 (11760878_x_at) / Fold change /veh HLA-DPB1 (11760878_x_at) / RFU SPINT1 (11716480_a_at) / Fold change /veh SPINT1 (11716480_a_at) / RFU GAP43 (11754022_s_at) / Fold change /veh GAP43 (11754022_s_at) / RFU A4GNT (11735810_at) / Fold change /veh A4GNT (11735810_at) / RFU PRB3 (11715151_x_at) / Fold change /veh PRB3 (11715151_x_at) / RFU TUBB4B (11761932_at) / Fold change /veh TUBB4B (11761932_at) / RFU CAPN14 (11732068_a_at) / Fold change /veh CAPN14 (11732068_a_at) / RFU TMCC2 (11721928_a_at) / Fold change /veh TMCC2 (11721928_a_at) / RFU IRGQ (11745062_a_at) / Fold change /veh IRGQ (11745062_a_at) / RFU FAM174B (11720279_a_at) / Fold change /veh FAM174B (11720279_a_at) / RFU TMPRSS4 (11748680_a_at) / Fold change /veh TMPRSS4 (11748680_a_at) / RFU FAM212B (11763350_a_at) / Fold change /veh FAM212B (11763350_a_at) / RFU PLEKHG5 (11743358_a_at) / Fold change /veh PLEKHG5 (11743358_a_at) / RFU ZSCAN30 (11745921_a_at) / Fold change /veh ZSCAN30 (11745921_a_at) / RFU CMKLR1 (11741424_a_at) / Fold change /veh CMKLR1 (11741424_a_at) / RFU LOC101060620 /// MAPK8IP1 (11723275_at) / Fold change /veh LOC101060620 /// MAPK8IP1 (11723275_at) / RFU SPTSSB (11747773_x_at) / Fold change /veh SPTSSB (11747773_x_at) / RFU PRSS12 (11739890_at) / Fold change /veh PRSS12 (11739890_at) / RFU BIN1 (11741810_x_at) / Fold change /veh BIN1 (11741810_x_at) / RFU WNT11 (11732464_a_at) / Fold change /veh WNT11 (11732464_a_at) / RFU C10orf10 (11716521_a_at) / Fold change /veh C10orf10 (11716521_a_at) / RFU C5orf56 (11738089_at) / Fold change /veh C5orf56 (11738089_at) / RFU CYB561 (11721691_x_at) / Fold change /veh CYB561 (11721691_x_at) / RFU ANKRD19P (11752326_a_at) / Fold change /veh ANKRD19P (11752326_a_at) / RFU OR2T12 /// OR2T33 /// OR2T8 (11738714_s_at) / Fold change /veh OR2T12 /// OR2T33 /// OR2T8 (11738714_s_at) / RFU VCAN (11748164_a_at) / Fold change /veh VCAN (11748164_a_at) / RFU JSRP1 (11732532_at) / Fold change /veh JSRP1 (11732532_at) / RFU KRTAP10-11 (11738290_x_at) / Fold change /veh KRTAP10-11 (11738290_x_at) / RFU MYO3A (11730013_a_at) / Fold change /veh MYO3A (11730013_a_at) / RFU EBF3 (11725865_a_at) / Fold change /veh EBF3 (11725865_a_at) / RFU CAMK2N1 (11719241_x_at) / Fold change /veh CAMK2N1 (11719241_x_at) / RFU C5orf56 (11738088_a_at) / Fold change /veh C5orf56 (11738088_a_at) / RFU OLFML3 (11715873_a_at) / Fold change /veh OLFML3 (11715873_a_at) / RFU LOC100653217 /// NTM (11731650_a_at) / Fold change /veh LOC100653217 /// NTM (11731650_a_at) / RFU MAPK11 (11762145_a_at) / Fold change /veh MAPK11 (11762145_a_at) / RFU FIZ1 (11724087_x_at) / Fold change /veh FIZ1 (11724087_x_at) / RFU OASL (11726364_x_at) / Fold change /veh OASL (11726364_x_at) / RFU SOX15 (11748057_x_at) / Fold change /veh SOX15 (11748057_x_at) / RFU CD79A (11719716_a_at) / Fold change /veh CD79A (11719716_a_at) / RFU HIST1H1D (11736915_at) / Fold change /veh HIST1H1D (11736915_at) / RFU CASKIN2 (11723855_a_at) / Fold change /veh CASKIN2 (11723855_a_at) / RFU LOC730098 (11760151_x_at) / Fold change /veh LOC730098 (11760151_x_at) / RFU OR4N2 (11742367_at) / Fold change /veh OR4N2 (11742367_at) / RFU PRRT2 (11749266_a_at) / Fold change /veh PRRT2 (11749266_a_at) / RFU SNX32 (11753110_a_at) / Fold change /veh SNX32 (11753110_a_at) / RFU CDHR5 (11726645_a_at) / Fold change /veh CDHR5 (11726645_a_at) / RFU RCAN1 (11760418_a_at) / Fold change /veh RCAN1 (11760418_a_at) / RFU FAM167A (11723789_a_at) / Fold change /veh FAM167A (11723789_a_at) / RFU FAM26E (11764081_at) / Fold change /veh FAM26E (11764081_at) / RFU ISYNA1 (11749810_s_at) / Fold change /veh ISYNA1 (11749810_s_at) / RFU ACY1 (11761880_at) / Fold change /veh ACY1 (11761880_at) / RFU 11764098_at / Fold change /veh 11764098_at / RFU SAMD14 (11745864_x_at) / Fold change /veh SAMD14 (11745864_x_at) / RFU NPB (11741838_a_at) / Fold change /veh NPB (11741838_a_at) / RFU TMPRSS6 (11731388_a_at) / Fold change /veh TMPRSS6 (11731388_a_at) / RFU KRTAP10-2 (11738614_at) / Fold change /veh KRTAP10-2 (11738614_at) / RFU ARHGAP8 /// PRR5-ARHGAP8 (11727945_x_at) / Fold change /veh ARHGAP8 /// PRR5-ARHGAP8 (11727945_x_at) / RFU KRTAP5-7 /// NADSYN1 (11734609_at) / Fold change /veh KRTAP5-7 /// NADSYN1 (11734609_at) / RFU RASL12 (11751679_a_at) / Fold change /veh RASL12 (11751679_a_at) / RFU CDKN2B (11736163_a_at) / Fold change /veh CDKN2B (11736163_a_at) / RFU PRF1 (11729649_at) / Fold change /veh PRF1 (11729649_at) / RFU, ZNF638 /// ZNF638-IT1 / Fold change vs veh, ZNF638 /// ZNF638-IT1 / RFU, PANK3 / Fold change vs veh, PANK3 / RFU, SH3YL1 / Fold change vs veh, SH3YL1 / RFU, ZEB2 / Fold change vs veh, ZEB2 / RFU, NRIP1 / Fold change vs veh, NRIP1 / RFU, PTTG1IP / Fold change vs veh, PTTG1IP / RFU, CAPN2 / Fold change vs veh, CAPN2 / RFU, MED14 / Fold change vs veh, MED14 / RFU, SNORA58 / Fold change vs veh, SNORA58 / RFU, C1orf63 / Fold change vs veh, C1orf63 / RFU, LRRFIP1 / Fold change vs veh, LRRFIP1 / RFU, NDUFAF7 / Fold change vs veh, NDUFAF7 / RFU, SLC12A2 / Fold change vs veh, SLC12A2 / RFU, IBTK / Fold change vs veh, IBTK / RFU, ESF1 / Fold change vs veh, ESF1 / Fold change vs veh, TMEM50B / RFU, TAOK1 / Fold change vs veh, TAOK1 / RFU, ACBD3 / Fold change vs veh, ACBD3 / RFU, TMA16 / Fold change vs veh, TMA16 / RFU, RWDD3 / Fold change vs veh, RWDD3 / RFU, BCAT1 / Fold change vs veh, BCAT1 / RFU, EDEM3 / Fold change vs veh, EDEM3 / RFU, TMEM33 / Fold change vs veh, TMEM33 / RFU, WDR75 / Fold change vs veh, WDR75 / RFU, AHCTF1 / Fold change vs veh, AHCTF1 / RFU, TFRC / Fold change vs veh, TFRC / RFU, ZDHHC17 / Fold change vs veh, ZDHHC17 / RFU, NOM1 / Fold change vs veh, NOM1 / RFU, ARL8B / Fold change vs veh, ARL8B / RFU, ZBTB11 / Fold change vs veh, ZBTB11 / RFU, TAMM41 / Fold change vs veh, TAMM41 / RFU, KIAA1704 /// LOC100996395 / Fold change vs veh, KIAA1704 /// LOC100996395 / RFU, ING1 / Fold change vs veh, ING1 / RFU, TRMT61B / Fold change vs veh, TRMT61B / RFU, FUBP3 / Fold change vs veh, FUBP3 / RFU, TP53 / Fold change vs veh, TP53 / RFU, TNKS2 / Fold change vs veh, TNKS2 / RFU, ZFP14 / Fold change vs veh, ZFP14 / RFU, ACTR2 / Fold change vs veh, ACTR2 / RFU, PPP3R1 / Fold change vs veh, PPP3R1 / RFU, PIK3R1 / Fold change vs veh, PIK3R1 / RFU, HNRNPA1 / Fold change vs veh, HNRNPA1 / RFU, RNF170 / Fold change vs veh, RNF170 / RFU, ZNF28 / Fold change vs veh, ZNF28 / RFU, RNGTT / Fold change vs veh, RNGTT / RFU, OGT / Fold change vs veh, OGT / RFU, BRD1 / Fold change vs veh, BRD1 / RFU, MARS / Fold change vs veh, MARS / RFU, ZNF655 / Fold change vs veh, ZNF655 / RFU, FAHD1 / Fold change vs veh, FAHD1 / RFU, BDP1 / Fold change vs veh, BDP1 / RFU, LRRCC1 / Fold change vs veh, LRRCC1 / RFU, ARID1A / Fold change vs veh, ARID1A / RFU, ZNF146 / Fold change vs veh, ZNF146 / RFU, ZNF330 / Fold change vs veh, ZNF330 / RFU, GPN3 / Fold change vs veh, GPN3 / RFU, C9orf123 / Fold change vs veh, C9orf123 / RFU, N4BP2L2 / Fold change vs veh, N4BP2L2 / RFU, ARFIP1 / Fold change vs veh, ARFIP1 / RFU, FAM179B / Fold change vs veh, FAM179B / RFU, BCL10 / Fold change vs veh, BCL10 / RFU, UHRF1BP1L / Fold change vs veh, UHRF1BP1L / RFU, BET1 / Fold change vs veh, BET1 / RFU, CNOT2 / Fold change vs veh, CNOT2 / RFU, ZNF268 / Fold change vs veh, ZNF268 / Fold change vs veh, ZNF507 / RFU, DGCR2 / Fold change vs veh, DGCR2 / RFU, WDSUB1 / Fold change vs veh, WDSUB1 / Fold change vs veh, HSP90B1 /// MIR3652 / RFU, ADSS / Fold change vs veh, ADSS / RFU, GK / Fold change vs veh, GK / RFU, ZNF148 / Fold change vs veh, ZNF148 / RFU, TAF9 / Fold change vs veh, TAF9 / RFU, SLC1A5 / Fold change vs veh, SLC1A5 / RFU, SLMO2 / Fold change vs veh, SLMO2 / RFU, ABCC4 / Fold change vs veh, ABCC4 / RFU, LOC101060439 /// RAP1B / Fold change vs veh, LOC101060439 /// RAP1B / RFU, RFX7 / Fold change vs veh, RFX7 / RFU, GTPBP10 / Fold change vs veh, GTPBP10 / RFU, CNEP1R1 / Fold change vs veh, CNEP1R1 / RFU, BIVM-ERCC5 /// ERCC5 / Fold change vs veh, BIVM-ERCC5 /// ERCC5 / RFU, ILF3 / Fold change vs veh, ILF3 / RFU 11762660_at / Fold change /veh 11762660_at / RFU VCAN (11757783_s_at) / Fold change /veh VCAN (11757783_s_at) / RFU DDX43 (11728927_at) / Fold change /veh DDX43 (11728927_at) / RFU KRT8 (11758188_x_at) / Fold change /veh KRT8 (11758188_x_at) / RFU NKD1 (11759106_at) / Fold change /veh NKD1 (11759106_at) / RFU SRD5A1 (11742802_a_at) / Fold change /veh SRD5A1 (11742802_a_at) / RFU TPSAB1 /// TPSB2 (11721975_s_at) / Fold change /veh TPSAB1 /// TPSB2 (11721975_s_at) / RFU GSTM3 (11746129_a_at) / Fold change /veh GSTM3 (11746129_a_at) / RFU IL23R (11737362_x_at) / Fold change /veh IL23R (11737362_x_at) / RFU TMEM51 (11727254_a_at) / Fold change /veh TMEM51 (11727254_a_at) / RFU PIWIL2 (11732686_x_at) / Fold change /veh PIWIL2 (11732686_x_at) / RFU ORM1 (11744905_x_at) / Fold change /veh ORM1 (11744905_x_at) / RFU CCDC152 (11743942_at) / Fold change /veh CCDC152 (11743942_at) / RFU ECM1 (11717891_a_at) / Fold change /veh ECM1 (11717891_a_at) / RFU IL23R (11748794_a_at) / Fold change /veh IL23R (11748794_a_at) / RFU TNFAIP8L3 (11732012_x_at) / Fold change /veh TNFAIP8L3 (11732012_x_at) / RFU MBOAT4 (11741988_at) / Fold change /veh MBOAT4 (11741988_at) / RFU 11764193_at / Fold change /veh 11764193_at / RFU TMEM53 (11763286_at) / Fold change /veh TMEM53 (11763286_at) / RFU MAGEB2 (11727129_at) / Fold change /veh MAGEB2 (11727129_at) / RFU TMEM200A (11744735_a_at) / Fold change /veh TMEM200A (11744735_a_at) / RFU CCDC152 (11751479_a_at) / Fold change /veh CCDC152 (11751479_a_at) / RFU FAM211A (11726209_a_at) / Fold change /veh FAM211A (11726209_a_at) / RFU RGS16 (11746705_a_at) / Fold change /veh RGS16 (11746705_a_at) / RFU VCAN (11755009_s_at) / Fold change /veh VCAN (11755009_s_at) / RFU RHOB (11743442_s_at) / Fold change /veh RHOB (11743442_s_at) / RFU RGS16 (11720943_a_at) / Fold change /veh RGS16 (11720943_a_at) / RFU RGS16 (11720944_at) / Fold change /veh RGS16 (11720944_at) / RFU, VPS4B / Fold change vs veh, VPS4B / RFU, CREB1 / Fold change vs veh, CREB1 / RFU, DNAJC13 / Fold change vs veh, DNAJC13 / RFU, GNAQ / Fold change vs veh, GNAQ / RFU, CDK5R1 / Fold change vs veh, CDK5R1 / RFU, ZRANB3 / Fold change vs veh, ZRANB3 / RFU, CUL4A / Fold change vs veh, CUL4A / RFU, CCNY / Fold change vs veh, CCNY / RFU, UFL1 / Fold change vs veh, UFL1 / RFU, COG3 / Fold change vs veh, COG3 / RFU, DIAPH2 / Fold change vs veh, DIAPH2 / RFU, SKA2 / Fold change vs veh, SKA2 / RFU, AFF3 / Fold change vs veh, AFF3 / RFU, LMF1 / Fold change vs veh, LMF1 / RFU, IPO11 / Fold change vs veh, IPO11 / RFU, DFFB / Fold change vs veh, DFFB / RFU, FOXP1 / Fold change vs veh, FOXP1 / RFU, CARD8 / Fold change vs veh, CARD8 / RFU, STRN3 / Fold change vs veh, STRN3 / RFU, ADK / Fold change vs veh, ADK / RFU, RASSF2 / Fold change vs veh, RASSF2 / RFU, WIPF1 / Fold change vs veh, WIPF1 / RFU, LARP1B / Fold change vs veh, LARP1B / RFU, RASA1 / Fold change vs veh, RASA1 / RFU, RB1 / Fold change vs veh, RB1 / RFU, PPFIA1 / Fold change vs veh, PPFIA1 / RFU, MAT2A / Fold change vs veh, MAT2A / RFU, CCT5 / Fold change vs veh, CCT5 / RFU, WDR92 / Fold change vs veh, WDR92 / RFU, CUX1 / Fold change vs veh, CUX1 / RFU, TTC7A / Fold change vs veh, TTC7A / RFU, TMEM135 / Fold change vs veh, TMEM135 / RFU, DEPTOR / Fold change vs veh, DEPTOR / RFU, CPM / Fold change vs veh, CPM / RFU, DNAJB6 / Fold change vs veh, DNAJB6 / RFU, CACNA2D3 / Fold change vs veh, CACNA2D3 / RFU, DTX4 / Fold change vs veh, DTX4 / RFU, TFCP2 / Fold change vs veh, TFCP2 / RFU, GMCL1 /// GMCL1P1 / Fold change vs veh, GMCL1 /// GMCL1P1 / RFU, AEBP2 / Fold change vs veh, AEBP2 / RFU, SNHG1 /// SNORD22 /// SNORD25 /// SNORD26 /// SNORD27 /// SNORD28 /// SNORD29 /// SNORD31 / Fold change vs veh, SNHG1 /// SNORD22 /// SNORD25 /// SNORD26 /// SNORD27 /// SNORD28 /// SNORD29 /// SNORD31 / Fold change (Aza/veh), C12orf56 (ProbeSet 11735607_a_at) / Fold change (ACY-1035/veh), C12orf56 (ProbeSet 11735607_a_at) / Fold change (Aza/veh), FGFR1OP (ProbeSet 11751329_s_at) / Fold change (ACY-1035/veh), FGFR1OP (ProbeSet 11751329_s_at) / Fold change (Aza/veh), VPS36 (ProbeSet 11739960_a_at) / Fold change (ACY-1035/veh), VPS36 (ProbeSet 11739960_a_at) / RFU SYPL1 (11715823_x_at) / Fold change /veh SYPL1 (11715823_x_at) / RFU IGFBP7 (11715501_s_at) / Fold change /veh IGFBP7 (11715501_s_at) / RFU REEP3 (11722064_at) / Fold change /veh REEP3 (11722064_at) / RFU IGLL1 (11728026_x_at) / Fold change /veh IGLL1 (11728026_x_at): dose or concentration left out as unconfirmed
Conditions: ProbeSet 11728676_at; LIST B

Nc1ncn([C@@H]2O[C@H](CO)[C@@H](O)[C@H]2O)c(=O)n1 [azacitidine]
RFU, MED14: 205.61 RFU
